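Five concentrations, 48 hours, 96-well plates. GI50 = concentration required for 50% inhibition of growth. TGI denotes the concentration required for complete inhibition of growth.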
Columns and labels:
Assay in all cases: inhibition of tumour cell growth, NCI panel, 48 h
786-0 renal = test system: 786-0 renal
A498 renal = test system: A498 renal
A549 NSCLC = test system: A549 NSCLC
ACHN renal = test system: ACHN renal
BT-549 breast = test system: BT-549 breast
CAKI-1 renal = test system: CAKI-1 renal
CCRF-CEM leukemia = test system: CCRF-CEM leukemia
COLO 205 colon = test system: COLO 205 colon
DU-145 prostate = test system: DU-145 prostate
EKVX NSCLC = test system: EKVX NSCLC
HCC-2998 colon = test system: HCC-2998 colon
HCT-116 colon = test system: HCT-116 colon
HCT-15 colon = test system: HCT-15 colon
HL-60(TB) leukemia = test system: HL-60(TB) leukemia
HOP-62 NSCLC = test system: HOP-62 NSCLC
HOP-92 NSCLC = test system: HOP-92 NSCLC
HS 578T breast = test system: HS 578T breast
HT29 colon = test system: HT29 colon
IGROV1 ovarian = test system: IGROV1 ovarian
K-562 leukemia = test system: K-562 leukemia
KM12 colon = test system: KM12 colon
LOX IMVI melanoma = test system: LOX IMVI melanoma
M14 melanoma = test system: M14 melanoma
MALME-3M melanoma = test system: MALME-3M melanoma
MCF7 breast = test system: MCF7 breast
MDA-MB-231 breast = test system: MDA-MB-231 breast
MDA-MB-435 = test system: MDA-MB-435
MOLT-4 leukemia = test system: MOLT-4 leukemia
NCI-H226 lung = test system: NCI-H226 lung
NCI-H23 lung = test system: NCI-H23 lung
NCI-H460 lung = test system: NCI-H460 lung
NCI-H522 lung = test system: NCI-H522 lung
NCI/ADR-RES ovarian = test system: NCI/ADR-RES ovarian
OVCAR-3 ovarian = test system: OVCAR-3 ovarian
OVCAR-4 ovarian = test system: OVCAR-4 ovarian
OVCAR-5 ovarian = test system: OVCAR-5 ovarian
OVCAR-8 ovarian = test system: OVCAR-8 ovarian
PC-3 prostate = test system: PC-3 prostate
RPMI-8226 leukemia = test system: RPMI-8226 leukemia
RXF 393 renal = test system: RXF 393 renal
SF-268 CNS = test system: SF-268 CNS
SF-295 CNS = test system: SF-295 CNS
SF-539 CNS = test system: SF-539 CNS
SK-MEL-2 melanoma = test system: SK-MEL-2 melanoma
SK-MEL-28 melanoma = test system: SK-MEL-28 melanoma
SK-MEL-5 melanoma = test system: SK-MEL-5 melanoma
SK-OV-3 ovarian = test system: SK-OV-3 ovarian
SN12C renal = test system: SN12C renal
SNB-19 CNS = test system: SNB-19 CNS
SNB-75 CNS = test system: SNB-75 CNS
SR leukemia = test system: SR leukemia
SW-620 colon = test system: SW-620 colon
TK-10 renal = test system: TK-10 renal
U251 CNS = test system: U251 CNS
UACC-257 melanoma = test system: UACC-257 melanoma
UACC-62 melanoma = test system: UACC-62 melanoma
UO-31 renal = test system: UO-31 renal

## O=S(=O)(Nc1cccc2ccccc12)c1ccc(-c2cnc(C3CC3)o2)cc1
786-0 renal
  GI50: 0.0712 µM
  TGI: > 82.9 µM
A498 renal
  GI50: 0.0334 µM
  TGI: 0.5 µM
A549 NSCLC
  GI50: 0.141 µM
  TGI: > 100 µM
ACHN renal
  GI50: 0.0684 µM
  TGI: > 100 µM
BT-549 breast
  GI50: 4.2 µM
  TGI: 34.8 µM
CAKI-1 renal
  GI50: 0.0463 µM
  TGI: > 81.7 µM
CCRF-CEM leukemia
  GI50: 0.0412 µM
  TGI: > 100 µM
COLO 205 colon
  GI50: 0.099 µM
  TGI: 1.35 µM
DU-145 prostate
  GI50: 0.144 µM
  TGI: > 100 µM
EKVX NSCLC
  GI50: 0.276 µM
  TGI: > 91.4 µM
HCC-2998 colon
  GI50: 0.22 µM
  TGI: 23.9 µM
HCT-116 colon
  GI50: 0.0473 µM
  TGI: > 74.5 µM
HCT-15 colon
  GI50: 0.0505 µM
  TGI: > 42 µM
HL-60(TB) leukemia
  GI50: 0.0301 µM
  TGI: 0.388 µM
HOP-62 NSCLC
  GI50: 0.0995 µM
  TGI: > 89.7 µM
HOP-92 NSCLC
  GI50: < 0.0193 µM
  TGI: 4.79 µM
HS 578T breast
  GI50: 0.0563 µM
  TGI: > 76.1 µM
HT29 colon
  GI50: 0.0484 µM
  TGI: > 68.9 µM
IGROV1 ovarian
  GI50: 0.0626 µM
  TGI: > 100 µM
K-562 leukemia
  GI50: 0.0417 µM
  TGI: > 73.2 µM
KM12 colon
  GI50: 0.0498 µM
  TGI: 14.9 µM
LOX IMVI melanoma
  GI50: 0.0488 µM
  TGI: 26 µM
M14 melanoma
  GI50: 0.0764 µM
  TGI: > 48.5 µM
MALME-3M melanoma
  GI50: 12.1 µM
  TGI: 67.3 µM
MCF7 breast
  GI50: 0.0329 µM
  TGI: > 57.7 µM
MDA-MB-231 breast
  GI50: 0.389 µM
  TGI: > 48.7 µM
MDA-MB-435
  GI50: 0.0243 µM
  TGI: 0.0854 µM
MOLT-4 leukemia
  GI50: 0.101 µM
  TGI: > 49.4 µM
NCI-H226 lung
  GI50: 0.106 µM
  TGI: 30.6 µM
NCI-H23 lung
  GI50: 0.186 µM
  TGI: 31.5 µM
NCI-H460 lung
  GI50: 0.0435 µM
  TGI: 12.6 µM
NCI-H522 lung
  GI50: 0.0612 µM
  TGI: 24 µM
NCI/ADR-RES ovarian
  GI50: 0.0455 µM
  TGI: 16.7 µM
OVCAR-3 ovarian
  GI50: 0.0425 µM
  TGI: 15.7 µM
OVCAR-4 ovarian
  GI50: 0.088 µM
  TGI: > 100 µM
OVCAR-5 ovarian
  GI50: 0.45 µM
  TGI: > 100 µM
OVCAR-8 ovarian
  GI50: 0.347 µM
  TGI: > 100 µM
PC-3 prostate
  GI50: 0.0474 µM
  TGI: > 59.9 µM
RPMI-8226 leukemia
  GI50: 0.0536 µM
  TGI: 20 µM
RXF 393 renal
  GI50: 0.0237 µM
  TGI: 0.141 µM
SF-268 CNS
  GI50: 0.716 µM
  TGI: > 100 µM
SF-295 CNS
  GI50: 0.0401 µM
  TGI: 15.6 µM
SF-539 CNS
  GI50: 0.0423 µM
  TGI: 2.07 µM
SK-MEL-2 melanoma
  GI50: 2.42 µM
  TGI: 56.5 µM
SK-MEL-28 melanoma
  GI50: 3.44 µM
  TGI: > 100 µM
SK-MEL-5 melanoma
  GI50: 0.0568 µM
  TGI: 3.41 µM
SK-OV-3 ovarian
  GI50: 2.19 µM
  TGI: > 85.8 µM
SN12C renal
  GI50: 0.508 µM
  TGI: > 64.6 µM
SNB-19 CNS
  GI50: 0.063 µM
  TGI: > 100 µM
SNB-75 CNS
  GI50: 0.0301 µM
  TGI: 82.5 µM
SR leukemia
  GI50: 0.0402 µM
  TGI: > 34.3 µM
SW-620 colon
  GI50: 0.0489 µM
  TGI: > 100 µM
TK-10 renal
  GI50: 19.7 µM
  TGI: > 100 µM
U251 CNS
  GI50: 0.0745 µM
  TGI: 97.1 µM
UACC-257 melanoma
  GI50: 5.94 µM
  TGI: 45.7 µM
UACC-62 melanoma
  GI50: 0.0402 µM
  TGI: 23.5 µM
UO-31 renal
  GI50: 0.0745 µM
  TGI: > 59.2 µM
